test system: not given; assay: not given; details: not given

SMILES | melting point
O=C(Nc1nccs1)C(CC1CCCC1)c1cccc(O)c1 (stereo not shown) [Example 111, 3-Cyclopentyl-2-(3-hydroxy-phenyl)-N-thiazol-2-yl-propionamide] | 177 to 179 °C
COc1ccc(C(CC2CCCC2)C(=O)Nc2nccs2)cc1OC (stereo not shown) [Example 113, 3-Cyclopentyl-2-(3,4-dimethoxy-phenyl)-N-thiazol-2-yl-propionamide] | 50 to 52 °C
O=C(Nc1nccs1)C(CC1CCCC1)c1ccc(O)c(O)c1 (stereo not shown) [Example 114, 3-Cyclopentyl-2-(3,4-dihydroxy-phenyl)-N-thiazol-2-yl-propionamide] | 170 to 173 °C
COc1ccc(C(CC2CCCC2)C(=O)Nc2nccs2)cc1 (stereo not shown) [Example 115, 3-Cyclopentyl-2-(4-methoxy-phenyl)-N-thiazol-2-yl-propionamide] | 166 to 167 °C
O=C(Nc1nccs1)C(CC1CCCC1)c1ccc(O)cc1 (stereo not shown) [Example 116, 3-Cyclopentyl-2-(4-hydroxy-phenyl)-N-thiazol-2-yl-propionamide] | 198 to 200 °C
COC(=O)c1ccc(C(CC2CCCC2)C(=O)Nc2nccs2)cc1 (stereo not shown) [Example 117, 4-[2-Cyclopentyl-1-(thiazol-2-ylcarbamoyl)-ethyl]-benzoic acid methyl ester] | 54 to 56 °C
COc1ccc(C(CC2CCCC2)C(=O)Nc2nccs2)cc1F (stereo not shown) [Example 118, 3-Cyclopentyl-2-(3-fluoro-4-methoxy-phenyl)-N-thiazol-2-yl-propionamide] | 51 to 53 °C
O=C(Nc1nccs1)C(CC1CCCC1)c1ccc(O)c(F)c1 (stereo not shown) [Example 119, 3-Cyclopentyl-2-(3-fluoro-4-hydroxy-phenyl)-N-thiazol-2-yl-propionamide] | 199 to 201 °C
O=C(O)c1ccc(NC(=O)C(CC2CCCC2)c2cccc(Cl)c2)nc1 (stereo not shown) [Example 120, 6-[2-(3-Chloro-phenyl)-3-cyclopentyl-propionylamino]-nicotinic acid] | 251 to 255 °C
CSc1ccc([C@@H](CC2CCCC2)C(=O)Nc2cnccn2)cc1 [Example 126, 3-Cyclopentyl-2(R)-(4-methylsulfanyl-phenyl)-N-pyrazin-2-yl-propionamide] | 128 to 130 °C
CS(=O)(=O)c1ccc([C@@H](CC2CCCC2)C(=O)Nc2cnccn2)cc1 [Example 127, 3-Cyclopentyl-2(R)-(4-methylsulfonyl-phenyl)-N-pyrazin-2-yl-propionamide] | 75 to 80 °C
CS(=O)(=O)c1ccc(C(CC2CCCC2)C(=O)Nc2ncc(C(N)=O)s2)cc1 (stereo not shown) [Example 134, 2-[3-Cyclopentyl-2-(4-methanesulfonyl-phenyl)-propionylamino]-thiazole-5-carboxylic acid amide] | 155 to 160 °C
CSc1ccc(C(CC2CCCC2)C(=O)Nc2ccc([N+](=O)[O-])cn2)cc1C(F)(F)F (stereo not shown) [Example 154(A), 3-Cyclopentyl-2-(4-methylsulfanyl-3-trifluoromethyl-phenyl)-N-(5-nitro-pyridin-2-yl)-propionamide] | 109 to 110 °C
CS(=O)(=O)c1ccc(C(CC2CCCC2)C(=O)Nc2ccc(Br)cn2)cc1C(F)(F)F (stereo not shown) [Example 156(A), N-(5-Bromo-pyridin-2-yl)-3-cyclopentyl-2-(4-methanesulfonyl-3-trifluoromethyl-phenyl)-propionamide] | 81 to 85 °C
O=C(Nc1ccncn1)C(CC1CCCC1)c1cccc(C(F)(F)F)c1 (stereo not shown) [Example 165(A), 3-Cyclopentyl-N-pyrimidin-4-yl-2-(3-trifluoromethyl-phenyl)-propionamide] | 113 to 115 °C
O=C(Nc1ccc([N+](=O)[O-])cn1)C(CC1CCCC1)c1ccc(F)c(C(F)(F)F)c1 (stereo not shown) [Example 167(A), 3-Cyclopentyl-2-(4-fluoro-3-trifluoromethyl-phenyl)-N-(5-nitro-pyridin-2-yl)-propionamide] | 121 to 122 °C

Other lines, results leading:

melting point | SMILES
73 to 75 °C | CS(=O)(=O)c1ccc(C(CC2CCCC2)C(=O)Nc2ncc(Br)s2)cc1 (stereo not shown) [Example 132, N-(5-Bromo-thiazol-2-yl)-3-cyclopentyl-2-(4-methanesulfonyl-phenyl)-propionamide]
76 to 79 °C | CS(=O)(=O)c1ccc(C(CC2CCCC2)C(=O)Nc2ccccn2)cc1F (stereo not shown) [Example 136, 3-Cyclopentyl-2-(3-fluoro-4-methanesulfonyl-phenyl)-N-pyridin-2-yl-propionamide]
> 200 °C | CS(=O)(=O)c1ccc([C@@H](CC2CCCC2)C(=O)Nc2cc[nH]c(=O)n2)cc1Cl [Example 145, 2(R)-(3-Chloro-4-methanesulfonyl-phenyl)-3-cyclopentyl-N-(2-oxo-1,2-dihydro-pyrimidin-4-yl)-propionamide]
75 to 80 °C | CS(=O)(=O)c1ccc(C(CC2CCCC2)C(=O)Nc2ccncn2)cc1Br (stereo not shown) [Example 148(A), 2-(3-Bromo-4-methanesulfonyl-phenyl)-3-cyclopentyl-N-pyrimidin-4-yl-propionamide]
> 210 °C (dec.) | CS(=O)(=O)c1ccc(C(CC2CCCC2)C(=O)Nc2ncc[nH]2)cc1Br (stereo not shown) [Example 150, 2-(3-Bromo-4-methanesulfonyl-phenyl)-3-cyclopentyl-N-(1 H-imidazol-2-yl)-propionamide]
79 to 84 °C | CS(=O)(=O)c1ccc(C(CC2CCCC2)C(=O)Nc2ccncn2)cc1C#N (stereo not shown) [Example 151, 2-(3-Cyano-4-methanesulfonyl-phenyl)-3-cyclopentyl-N-pyrimidin-4-yl-propionamide]
89 to 94 °C | Cc1nccc(NC(=O)C(CC2CCCC2)c2ccc(S(C)(=O)=O)c(C#N)c2)n1 (stereo not shown) [Example 152, 2-(3-Cyano-4-methanesulfonyl-phenyl)-3-cyclopentyl-N-(2-methyl-pyrimidin-4-yl)-propionamide]
88 to 93 °C | CS(=O)(=O)c1ccc(C(CC2CCCC2)C(=O)Nc2cnccn2)cc1C#N (stereo not shown) [Example 153, 2-(3-Cyano-4-methanesulfonyl-phenyl)-3-cyclopentyl-N-pyrazin-2-yl-propionamide]
236 to 238 °C | CS(=O)(=O)c1ccc(C(CC2CCCC2)C(=O)Nc2ccnc(=O)[nH]2)cc1C(F)(F)F (stereo not shown) [Example 155(A), 3-Cyclopentyl-2-(4-methanesulfonyl-3-trifluoromethyl-phenyl)-N-(2-oxo-2,3-dihydro-pyrimidin-4-yl)-propionamide]
91 to 95 °C | CS(=O)(=O)c1ccc(C(CC2CCCC2)C(=O)Nc2ccncn2)cc1[N+](=O)[O-] (stereo not shown) [Example 158, 3-Cyclopentyl-2-(4-methanesulfonyl-3-nitro-phenyl)-N-pyrimidin-4-yl-propionamide]
96 to 99 °C | Cc1nccc(NC(=O)C(CC2CCCC2)c2ccc(S(C)(=O)=O)c([N+](=O)[O-])c2)n1 (stereo not shown) [Example 159, 3-Cyclopentyl-2-(4-methanesulfonyl-3-nitro-phenyl)-N-(2-methyl-pyrimidin-4-yl)-propionamide]
256 to 258 °C (dec.) | CS(=O)(=O)c1ccc(C(CC2CCCC2)C(=O)Nc2cc[nH]c(=O)n2)cc1[N+](=O)[O-] (stereo not shown) [Example 160, 3-Cyclopentyl-2-(4-methanesulfonyl-3-nitro-phenyl)-N-(2-oxo-1,2-dihydro-pyrimidin-4-yl)-propionamide]
104 to 108 °C | CS(=O)(=O)c1ccc(C(CC2CCCC2)C(=O)Nc2cnccn2)cc1[N+](=O)[O-] (stereo not shown) [Example 161, 3-Cyclopentyl-2-(4-methanesulfonyl-3-nitro-phenyl)-N-pyrazin-2-yl-propionamide]
243 to 244 °C | CS(=O)(=O)c1ccc(C(CC2CCCC2)C(=O)Nc2ncc[nH]2)cc1[N+](=O)[O-] (stereo not shown) [Example 162, 3-Cyclopentyl-N-(1 H-imidazol-2-yl)-2-(4-methanesulfonyl-3-nitro-phenyl)-propionamide]
128 to 130 °C | O=C(Nc1ccc(Br)cn1)C(CC1CCCC1)c1ccc(Cl)c([N+](=O)[O-])c1 (stereo not shown) [Example 164, N-(5-Bromo-pyridin-2-yl)-2-(4-chloro-3-nitro-phenyl)-3-cyclopentyl-propionamide]

test system: C57BL/6J mice; assay: Glucokinase activator in vivo screen (blood glucose after oral dosing); details: administered orally, 50 mg/kg, C57BL/6J mice fasted two hours; decrease in blood glucose compared to vehicle over six hours (Example B)
Experimental: Glucokinase Activator In Vivo Screen Protocol
C57BL/6J mice are orally dosed via gavage with Glucokinase (GK) activator at 50 mg/kg body weight following a two hour fasting period. Blood glucose determinations are made five times during the six hour post-dose study period. Mice (n=6) are weighed and fasted for a two hour period prior to oral treatment.

SMILES | glucokinase activator in vivo activity
CS(=O)(=O)c1ccc(C(CC2CCCC2)C(=O)Nc2nccs2)cc1 (stereo not shown) [Example 3(A), 3-Cyclopentyl-2-(4-methanesulfonyl-phenyl)-N-thiazol-2-yl-propionamide] | excellent glucokinase activator in vivo activity
CS(=O)(=O)c1ccc(C(CC2CCCC2)C(=O)Nc2nccs2)cc1Cl (stereo not shown) [Example 12, 2-[3-Chloro-4-methanesulfonyl-phenyl]-3-cyclopentyl-N-thiazol-2-yl-propionamide] | excellent glucokinase activator in vivo activity
CS(=O)(=O)c1ccc([C@@H](CC2CCCC2)C(=O)Nc2nccs2)cc1 [Example 13, (2R)-3-Cyclopentyl-2-(4-methanesulfonylphenyl)-N-thiazol-2-yl-propionamide] | excellent glucokinase activator in vivo activity
Cc1ccc(NC(=O)C(CC2CCCC2)c2ccc(S(=O)(=O)C(F)(F)F)cc2)nc1 (stereo not shown) [Example 43(B)(b), 3-Cyclopentyl-N-(5-methyl-pyridin-2-yl)-2-(4-trifluoromethanesulfonyl-phenyl)-propionamide] | excellent glucokinase activator in vivo activity
COC(=O)c1ccc(NC(=O)C(CC2CCCC2)c2ccc(S(=O)(=O)C(F)(F)F)cc2)nc1 (stereo not shown) [Example 43(B)(c), 6-[3-Cyclopentyl-2-(4-trifluoromethanesulfonyl-phenyl)-propionylamino]-nicotinic acid methyl ester] | excellent glucokinase activator in vivo activity
COC(=O)c1ccc(NC(=O)[C@H](CC2CCCC2)c2ccc(Cl)c(Cl)c2)nc1 [Example 45, 6-[3-Cyclopentyl-2(R)-(3,4-dichloro-phenyl)-propionylamino]-nicotinic acid methyl ester] | excellent glucokinase activator in vivo activity
